Measurements as given in patent publication US8268823B2, “Medical use of triazine derivatives” (University of Greenwich, priority 2006, dated 2012).
Read-outs that look alike come from different tables or passages of the source.

Columns and labels:
sodium channel [1] = assay: veratrine-evoked uptake of [14C]guanidine into rat forebrain synaptosomes ([14C]guanidine flux); type: biochemical
Description: The screening strategy is designed to select compounds with appropriate sodium channel blocking activity and low side effect liability. To this end all compounds are processed through the primary sodium channel assay (veratrine-evoked uptake of [^14C]guanidine into rat forebrain synaptosomes) and IC50 values computed from generated concentration-effect curves.
Synaptosomes (heavy and light mitochondrial fraction containing synaptosomes) were prepared by transferring the forebrain (of known wet weight) to a glass Potter vessel to which 9 volumes ice-cold 0.25M sucrose had been added and homogenising, using a teflon pestle, by 8 ‘up and down strokes’ of a Braun Potter S motor driven homogeniser set to 900 rpm. The resulting homogenate was centrifuged at 1036×g at 4° for 10 min and the supernatant collected. The remaining pellet was resuspended, as above, in fresh ice-cold 0.25M sucrose and the centrifugation step repeated. The supernatant fractions were pooled and centrifuged at 40,000×g (average) at 4° for 15 min and the resulting pellet resuspended in the appropriate assay buffer at a concentration of 20-25 mg wet weight per ml appropriate assay buffer.
Both assays were carried out using 14 ml polypropylene test tubes to which a range of concentrations of the compounds under test were added.
Compounds under test were pre-incubated for 10 min at 30° in incubation buffer (50 mM pH 7.4 HEPES (adjusted to pH 7.4 with Tris base), 130 mM choline chloride, 5.5 mM D-glucose, 0.8 mm MgSO4 and 5 mM KCl) containing 7.5 mg original wet weight of tissue and 100 μg veratrine HCl in a final volume of 0.5 ml. […] A further 2×5 ml of ice-cold wash buffer was added to each tube and the vacuum filtration step repeated. The GF/C glass fibre filters were transferred to minivials and 4 ml Picofluor^40 liquid scintillant added using a Brandel™ deposit/dispense system. Radioactivity was measured using a Beckman Liquid Scintillation Counter.
(§1) Data are presented as mean±sem of number of experiments indicated in brackets.

sodium channel [2] = type: binding, rat
[3] = target: T1, DiHydroFolate Reductase (DHFR) (Rattus norvegicus, UniProt Q920D2); assay: inhibition of binding of [3H]methotrexate to rat liver homogenate supernatant; conditions: for IC50: rat liver supernatant
T1 construct: from tissue; host or cells: rat liver homogenate supernatant (47,500 x g)
T1 sequence (Q920D2 1-187): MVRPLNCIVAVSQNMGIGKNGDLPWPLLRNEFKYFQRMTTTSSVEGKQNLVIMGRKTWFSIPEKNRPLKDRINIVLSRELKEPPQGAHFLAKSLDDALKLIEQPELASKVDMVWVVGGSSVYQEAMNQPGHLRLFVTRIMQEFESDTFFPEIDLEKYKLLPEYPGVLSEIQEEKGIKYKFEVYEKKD
Description: All steps were carried out at 4° (or on ice). Freshly dissected rat liver was dissected into 0.25M ice-cold Sucrose and subsequently homogenised (U-turrax) in 50 mM pH 6.0 phosphate buffer (10 ml/g tissue) containing 15 mM Dithiothreitol. The resulting homogenate was centrifuged @ 47,500×g for 20 min and supernatant (filtered through cotton wool to remove fatty lumps) stored @-80° before use (Rothenberg et al).
The binding reaction was stopped by the addition of 50 μl of a charcoal suspension (consisting of charcoal, Bovine Serum Albumin and Dextran present in a weight ratio of 100:4:1 suspended in 50 mM pH 6.0 phosphate buffer. Samples were vortexed, allowed to stand for 2 minutes and charcoal was precipitated by microcentrifugation @ full speed for 5 min. Aliquots of clear supernatant were transferred to counting vials containing liquid scintillant for measurement of radioactivity using Liquid Scintillation Spectroscopy.
Percentage inhibition values were calculated by comparison to this value.
as §1

hERG potassium channel [4] = target: T2, hERG potassium channel (Homo sapiens, UniProt Q12809); assay: in vitro; conditions: for selectivity ratio: hERG / [3H]BTX-B selectivity, ratio of extrapolated hERG IC50 to [3H]BTX-B IC50 (synaptosomes)
hERG potassium channel [5] = target: T2, hERG potassium channel; assay: inhibition of binding of [3H]astemizole to cell membranes expressing hERG; conditions: for selectivity ratio: human, cell membranes expressing hERG, probe [3H]astemizole
[6] = Table 3, rat forebrain synaptosomes, read-out: [14C]guanidine flux Mean (IC50: μM)
[7] = Table 4, tissue prep'n Synaptosomes, read-out: [3H]BTX-B binding Mean (IC50: μM)
[8] = Table 5, read-out: [14C]guanidine flux IC50
[9] = read-out: [3H]methotrexate binding Inhibition (% @ assay conc'n), assay concentration 10 μM
[10] = read-out: [3H]methotrexate binding Inhibition (% @ assay conc'n), assay concentration 99 μM
[11] = Table 5, Synaptosome data, read-out: [3H]BTX-B IC50

T2 sequence (Q12809 whole entry): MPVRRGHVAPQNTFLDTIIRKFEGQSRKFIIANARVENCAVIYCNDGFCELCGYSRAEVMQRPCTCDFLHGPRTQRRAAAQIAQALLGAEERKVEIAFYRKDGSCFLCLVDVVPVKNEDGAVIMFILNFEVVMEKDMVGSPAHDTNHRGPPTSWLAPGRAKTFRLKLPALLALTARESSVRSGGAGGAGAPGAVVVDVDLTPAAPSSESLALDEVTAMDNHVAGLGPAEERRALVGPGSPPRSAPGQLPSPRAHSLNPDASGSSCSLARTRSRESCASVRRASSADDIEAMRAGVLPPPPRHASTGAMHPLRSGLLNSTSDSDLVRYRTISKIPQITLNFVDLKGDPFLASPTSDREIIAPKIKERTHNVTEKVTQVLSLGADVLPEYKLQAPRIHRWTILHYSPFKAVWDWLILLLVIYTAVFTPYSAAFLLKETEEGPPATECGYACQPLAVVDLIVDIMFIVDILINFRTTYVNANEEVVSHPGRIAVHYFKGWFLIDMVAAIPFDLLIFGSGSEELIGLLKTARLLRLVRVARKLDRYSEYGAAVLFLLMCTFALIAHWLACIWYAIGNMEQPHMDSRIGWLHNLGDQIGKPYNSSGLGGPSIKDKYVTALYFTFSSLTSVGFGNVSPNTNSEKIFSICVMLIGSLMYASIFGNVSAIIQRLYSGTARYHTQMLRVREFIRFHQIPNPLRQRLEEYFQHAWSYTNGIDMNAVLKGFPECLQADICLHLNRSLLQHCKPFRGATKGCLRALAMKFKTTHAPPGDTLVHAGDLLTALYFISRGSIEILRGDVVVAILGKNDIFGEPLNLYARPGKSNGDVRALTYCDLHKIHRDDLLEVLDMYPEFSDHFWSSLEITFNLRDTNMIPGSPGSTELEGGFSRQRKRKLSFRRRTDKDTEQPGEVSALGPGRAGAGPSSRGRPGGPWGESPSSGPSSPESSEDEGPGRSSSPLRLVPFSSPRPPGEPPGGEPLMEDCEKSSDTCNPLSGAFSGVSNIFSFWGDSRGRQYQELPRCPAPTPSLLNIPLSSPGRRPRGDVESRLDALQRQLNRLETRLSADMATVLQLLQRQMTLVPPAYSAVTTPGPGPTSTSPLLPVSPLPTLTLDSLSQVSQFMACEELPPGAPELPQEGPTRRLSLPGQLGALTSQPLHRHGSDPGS

Structure (SMILES)	IC50 (sodium channel [1]; [6]) [µM]	pIC50 (uptake of [14C]guanidine) (sodium channel [1]; Table 8)	IC50 (sodium channel [1]; Table 8, read-out: IC50 (μM) (uptake of [14C]guanidine)) [µM]	Hill (uptake of [14C]guanidine) (sodium channel [1]; Table 8, slope)	IC50 (sodium channel [2]; Table 1, synaptosomes, mean ± sem (n), read-out: [3H]BTX-B binding (synaptosomes), mean IC50) [µM]	IC50 (sodium channel [2]; Table 4, tissue prep'n Homogenate, read-out: [3H]BTX-B binding Mean (IC50: μM)) [µM]	IC50 (sodium channel [2]; [7]) [µM]	[3H]methotrexate binding Inhibition (% @ assay conc'n) ([3]; assay concentration 10 μM) [%]	[3H]methotrexate binding Inhibition (% @ assay conc'n) ([3]; assay concentration 99 μM) [%]	IC50 (sodium channel [1]; [8]) [µM]	inhibition at 10 µM [3, 9] [%]	inhibition at 99 µM [3, 10] [%]	inhibition at 10 µM (hERG potassium channel [4]) [%]	IC50 (hERG potassium channel [5]) [µM]	selectivity ratio (hERG potassium channel [5])	inhibition at 198 µM ([3]; read-out: [3H]methotrexate binding Inhibition (% @ assay conc'n), assay concentration 198 μM) [%]	IC50 (sodium channel [2]; [11]) [µM]	IC50 [3] [µM]	selectivity ratio (hERG potassium channel [4])
Nc1nc(N)c(-c2cc(Cl)cc(Cl)c2Cl)c(CF)n1 [BW202W92, reference compound]	2	5.61 ± 0.04	2.5	1.07	4.5 ± 0.4	4.1	4.5	−1	29	–	–	–	–	–	–	–	–	–	–
C=CCn1nc(-c2cccc(Cl)c2Cl)c(N)nc1=N [Example 10, 5(3)-Amino-6-(2,3-dichlorophenyl)-2,3(2,5)-dihydro-3(5)-imino-2-(prop-2-enyl)-1,2,4-triazine hemi-methanesulfonate]	6.1	–	–	–	–	–	–	–	–	6.1	-2	-1	50	10	1.6	–	–	–	–
N=c1nc(N)c(-c2cccc(Cl)c2Cl)nn1Cc1cccc(F)c1F [Example 13, 5(3)-Amino-6-(2,3-dichlorophenyl)-2,3(2,5)-dihydro-3(5)-imino-2-(2,3-difluoro)phenylmethyl-1,2,4-triazine]	2.8	–	–	–	–	–	–	–	–	2.8	-3	-4	84	1.9	0.7	–	–	–	–
N=c1nc(N)c(-c2cccc(Cl)c2Cl)nn1Cc1ccccc1F [Example 14, 5(3)-Amino-6-(2,3-dichlorophenyl)-2,3(2,5)-dihydro-3(5)-imino-2-(2-fluoro)phenylmethyl-1,2,4-triazine]	2.8	–	–	–	–	–	–	–	–	2.8	-1	-4	80	2.5	0.9	–	–	–	–
N=c1nc(N)c(-c2cccc(Cl)c2Cl)nn1Cc1cccc(F)c1 [Example 15, 5(3)-Amino-6-(2,3-dichlorophenyl)-2,3(2,5)-dihydro-3(5)-imino-2-(3-fluoro)phenylmethyl-1,2,4-triazine]	3.9	–	–	–	–	–	–	–	–	3.9	-4	-5	83	2	0.5	–	–	–	–
COc1ccccc1Cn1nc(-c2cccc(Cl)c2Cl)c(N)nc1=N [Example 17, 5(3)-Amino-6-(2,3-dichlorophenyl)-2,3(2,5)-dihydro-3(5)-imino-2-(2-methoxy)phenylmethyl-1,2,4-triazine]	4.6	–	–	–	–	–	–	–	–	4.6	-4	–	84	1.9	0.4	-3	–	–	–
COc1cccc(Cn2nc(-c3cccc(Cl)c3Cl)c(N)nc2=N)c1 [Example 18, 5(3)-Amino-6-(2,3-dichlorophenyl)-2,3(2,5)-dihydro-3(5)-imino-2-(3-methoxy)phenylmethyl-1,2,4-triazine]	3.1	–	–	–	–	–	–	–	–	3.1	-4	-5	87	1.5	0.5	–	–	–	–
N=c1nc(N)c(-c2cccc(Cl)c2Cl)nn1Cc1ccccc1C(F)(F)F [Example 23, 5(3)-Amino-6-(2,3-dichlorophenyl)-2,3(2,5)-dihydro-3(5)-imino-2-(2-trifluoromethyl)phenylmethyl-1,2,4-triazine]	4.4	–	–	–	–	–	–	–	–	4.4	–	–	90	1.1	0.3	–	–	–	–
N=c1nc(N)c(-c2cccc(Cl)c2Cl)nn1Cc1cccc(C(F)(F)F)c1 [Example 24, 5(3)-Amino-6-(2,3-dichlorophenyl)-2,3(2,5)-dihydro-3(5)-imino-2-(3-trifluoromethyl)phenylmethyl-1,2,4-triazine]	4	–	–	–	–	–	–	–	–	4	–	–	94	0.6	0.2	–	–	–	–
N=c1nc(N)c(-c2cccc(Cl)c2Cl)nn1Cc1ccsc1 [Example 29, 5(3)-Amino-6-(2,3-dichlorophenyl)-2,3(2,5)-dihydro-3(5)-imino-2-(3-thienylmethyl)-1,2,4-triazine]	7.3	–	–	–	–	–	2.2	–	–	7.3	–	–	83	2	0.3	–	2.2	> 250	0.9
N=c1nc(N)c(-c2cccc(Cl)c2Cl)nn1Cc1ccoc1 [Example 30, 5(3)-Amino-6-(2,3-dichlorophenyl)-2,3(2,5)-dihydro-3(5)-imino-2-(3-furanylmethyl)-1,2,4-triazine]	4.4	–	–	–	–	–	2.6	–	–	4.4	–	–	65	5.4	1.2	–	2.6	> 250	2.1
Cn1nc(-c2cccc(Cl)c2F)c(N)nc1=N [Example 36, 5(3)-Amino-6-(3-chloro-2-fluorophenyl)-2,3(2,5)-dihydro-3(5)-imino-2-methyl-1,2,4-triazine]	129	–	–	–	–	–	–	–	–	129	–	–	33	20.3	0.2	–	–	> 300	–
N=c1nc(N)c(-c2cccc(Cl)c2Cl)nn1CC1CCNCC1 [Example 38, 4-[5(3)-Amino-6-(2,3-dichlorophenyl)-2,3(2,5)-dihydro-3(5)-imino-1,2,4-triazin-2-ylmethyl]piperidine dimethanesulfonate or 5(3)-Amino-6-(2,3-dichlorophenyl)-2,3(2,5)-dihydro-3(5)-imino-2-(piperidin-4-yl)methyl-1,2,4-triazine]	20.9	–	–	–	–	–	–	–	–	20.9	–	–	80	2.5	0.1	–	–	> 300	–
N=c1nc(N)c(-c2cccc(Cl)c2Cl)nn1CCC(F)(F)F [Example 39, 5(3)-Amino-6-(2,3-dichlorophenyl)-2,3(2,5)-dihydro-3(5)-imino-2-(3,3,3-trifluoropropyl)-1,2,4-triazine]	3.9	–	–	–	–	–	1.6	–	–	3.9	–	–	40	15	3.8	–	1.6	> 300	9.4
